Results as given in the Kinase Knowledgebase extract (Sharma et al. 2016).
Several values for one entry are separate records, joined by “and”; a condition that tells them apart may be missing. Identical values can stand only once.

Molecular target: MAPK14 (human) (UniProt Q16539)
Test: Inhibition of LPS Stimulated TNF Production by U937 Cells
Conditions: for inhibition: concentration not given here

Sequence of MAPK14 (human) (Q16539 whole entry, looked up): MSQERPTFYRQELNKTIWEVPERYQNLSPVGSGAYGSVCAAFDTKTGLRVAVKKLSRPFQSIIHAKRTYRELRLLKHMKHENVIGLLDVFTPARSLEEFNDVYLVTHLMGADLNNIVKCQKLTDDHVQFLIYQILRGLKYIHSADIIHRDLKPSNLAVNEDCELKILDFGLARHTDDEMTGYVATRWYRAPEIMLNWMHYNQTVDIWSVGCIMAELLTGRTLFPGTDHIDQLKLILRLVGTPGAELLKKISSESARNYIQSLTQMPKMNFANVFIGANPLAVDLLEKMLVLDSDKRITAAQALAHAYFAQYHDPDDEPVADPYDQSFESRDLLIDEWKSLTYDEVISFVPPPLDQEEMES

| inhibition [%] | IC50 | Structure (SMILES) |
| --- | --- | --- |
| 81 |  | C[C@@H](NS(=O)(=O)c1ccccc1C#N)c1[nH]nc(-c2ccc(F)cc2)c1-c1ccncc1 |
|  | > 1000 nM | COc1ccc(CC(=O)N[C@H](Cc2ccccc2)c2[nH]nc(-c3ccc(F)cc3)c2-c2ccncc2)cc1 |
|  | 720 nM | CC(C)COC(=O)NCc1[nH]nc(-c2ccc(F)cc2)c1-c1ccncc1 |
| 89 |  | C[C@@H](NS(=O)(=O)c1ccc(Br)cc1)c1[nH]nc(-c2ccc(F)cc2)c1-c1ccncc1 |
|  | > 1000 nM | CC(=O)OC(C)(C)C(=O)N[C@H](Cc1ccccc1)c1[nH]nc(-c2ccc(F)cc2)c1-c1ccncc1 |
| 80 |  | CCCCOc1ccc(S(=O)(=O)N[C@@H](C)c2[nH]nc(-c3ccc(F)cc3)c2-c2ccncc2)cc1 |
| 24 |  | Cc1ccccc1S(=O)(=O)NCc1[nH]nc(-c2ccc(F)cc2)c1-c1ccncc1 |
| 26 |  | C[C@H](NC(=O)Nc1ccc(F)cc1)c1[nH]nc(-c2ccc(F)cc2)c1-c1ccncc1 |
| 52 |  | C[C@@H](NC(=O)c1ccc(F)c(F)c1)c1[nH]nc(-c2ccc(F)cc2)c1-c1ccncc1 |
| 28 |  | O=C(NCc1[nH]nc(-c2ccc(F)cc2)c1-c1ccncc1)[C@@H]1C[C@@H]1c1ccccc1 |
| 21 |  | CCc1ccccc1NC(=O)NCc1[nH]nc(-c2ccc(F)cc2)c1-c1ccncc1 |
| 52 |  | COC(=O)NCc1[nH]nc(-c2ccc(F)cc2)c1-c1ccncc1 |
| 9 |  | CCOC(=O)C(CC(C)C)NC(=O)NCc1[nH]nc(-c2ccc(F)cc2)c1-c1ccncc1 (configuration not stated) |
| 58 |  | C[C@H](NC(=O)c1ccc(F)cc1C(F)(F)F)c1[nH]nc(-c2ccc(F)cc2)c1-c1ccncc1 |
| 33 |  | C[C@H](NC(=O)c1ccc(C(F)(F)F)cc1F)c1[nH]nc(-c2ccc(F)cc2)c1-c1ccncc1 |
| 86 |  | C[C@H](NS(=O)(=O)c1ccc(C(F)(F)F)cc1)c1[nH]nc(-c2ccc(F)cc2)c1-c1ccncc1 |
| 77 |  | C[C@H](NS(=O)(=O)c1c(Cl)cccc1Cl)c1[nH]nc(-c2ccc(F)cc2)c1-c1ccncc1 |
| 28 |  | COc1ccc(CC(=O)N[C@@H](C)c2[nH]nc(-c3ccc(F)cc3)c2-c2ccncc2)cc1OC |
| 35 |  | C[C@@H](NC(=O)Nc1ccc(F)cc1)c1[nH]nc(-c2ccc(F)cc2)c1-c1ccncc1 |
| 17 |  | CS(=O)(=O)N[C@H](Cc1ccccc1)c1[nH]nc(-c2ccc(F)cc2)c1-c1ccncc1 |
| 23 |  | Cc1c(-c2ccncc2)c(-c2ccc(F)cc2)nn1CC(=O)N[C@H](C)c1cccc2ccccc12 |
| 73 |  | C[C@@H](NC(=O)c1c(F)ccc(F)c1F)c1[nH]nc(-c2ccc(F)cc2)c1-c1ccncc1 |
|  | > 1000 nM | CNC(=O)CC[C@H](NS(=O)(=O)Cc1ccccc1)c1[nH]nc(-c2ccc(F)cc2)c1-c1ccncc1 |
| 23 |  | CS(=O)(=O)c1ccccc1S(=O)(=O)NCc1[nH]nc(-c2ccc(F)cc2)c1-c1ccncc1 |
| 21 |  | C[C@H](NC(=O)c1cccc(F)c1)c1[nH]nc(-c2ccc(F)cc2)c1-c1ccncc1 |
| 14 |  | O=C(NCc1[nH]nc(-c2ccc(F)cc2)c1-c1ccncc1)c1cnc2ccccc2n1 |

| inhibition [%] | IC50 | Structure (SMILES) |
| --- | --- | --- |
| 86 |  | C[C@@H](NC(=O)c1c(F)cccc1C(F)(F)F)c1[nH]nc(-c2ccc(F)cc2)c1-c1ccncc1 |
|  | 660 nM | C[C@@H](NC(=O)c1ccccc1I)c1[nH]nc(-c2ccc(F)cc2)c1-c1ccncc1 |
| 52 |  | C[C@@H](NC(=O)c1cc(F)cc(C(F)(F)F)c1)c1[nH]nc(-c2ccc(F)cc2)c1-c1ccncc1 |
| 100 |  | O=C(NCc1[nH]nc(-c2ccc(F)cc2)c1-c1ccncc1)c1ccc([N+](=O)[O-])o1 |
| 25 |  | O=C(NCc1[nH]nc(-c2ccc(F)cc2)c1-c1ccncc1)Nc1ccccc1OC(F)(F)F |
|  | > 1000 nM | CC(C)(C)C(=O)N[C@H](Cc1ccccc1)c1[nH]nc(-c2ccc(F)cc2)c1-c1ccncc1 |
| 68 |  | O=S(=O)(NCc1[nH]nc(-c2ccc(F)cc2)c1-c1ccncc1)c1ccccc1Br |
| 95 |  | C[C@@H](NS(=O)(=O)c1cccc(Br)c1)c1[nH]nc(-c2ccc(F)cc2)c1-c1ccncc1 |
| 13 |  | O=C(NCc1[nH]nc(-c2ccc(F)cc2)c1-c1ccncc1)c1cccc(C(F)(F)F)c1 |
|  | 2420 nM | C[C@@H](NC(=O)NCc1ccccc1)c1[nH]nc(-c2ccc(F)cc2)c1-c1ccncc1 |
| 22 |  | C[C@H](NC(=O)Nc1cccc(F)c1)c1[nH]nc(-c2ccc(F)cc2)c1-c1ccncc1 |
|  | 2260 nM | CC(Oc1ccccc1)C(=O)NCc1[nH]nc(-c2ccc(F)cc2)c1-c1ccncc1 (configuration not stated) |
| 27 |  | C[C@H](NC(=O)c1ccc(F)c(C(F)(F)F)c1)c1[nH]nc(-c2ccc(F)cc2)c1-c1ccncc1 |
| 48 |  | C[C@H](NC(=O)c1ccccc1Cl)c1[nH]nc(-c2ccc(F)cc2)c1-c1ccncc1 |
| 95 |  | C[C@@H](NS(=O)(=O)c1ccccc1Cl)c1[nH]nc(-c2ccc(F)cc2)c1-c1ccncc1 |
| 71 |  | C[C@@H](NS(=O)(=O)c1cccc2cccnc12)c1[nH]nc(-c2ccc(F)cc2)c1-c1ccncc1 |
| 88 |  | C[C@H](NS(=O)(=O)c1ccc(Cl)cc1)c1[nH]nc(-c2ccc(F)cc2)c1-c1ccncc1 |
| 42 |  | Cc1ccccc1C(=O)N[C@H](C)c1[nH]nc(-c2ccc(F)cc2)c1-c1ccncc1 |
| 68 |  | O=C(NCc1ccc(S(=O)(=O)NCc2[nH]nc(-c3ccc(F)cc3)c2-c2ccncc2)s1)c1ccccc1 |
| 75 |  | C[C@@H](NC(=O)c1ccccc1F)c1[nH]nc(-c2ccc(F)cc2)c1-c1ccncc1 |
| 21 |  | Cc1onc(-c2ccccc2Cl)c1C(=O)NCc1[nH]nc(-c2ccc(F)cc2)c1-c1ccncc1 |
| 30 |  | CNC(=O)NCc1[nH]nc(-c2ccc(F)cc2)c1-c1ccncc1 |
| 40 |  | CC(C)C(=O)N[C@H](C)c1[nH]nc(-c2ccc(F)cc2)c1-c1ccncc1 |
|  | > 1000 nM | CNC(=O)CC[C@H](NC(=O)c1ccccc1OC)c1[nH]nc(-c2ccc(F)cc2)c1-c1ccncc1 |
|  | 870 nM | CC(=O)OC(C)(C)C(=O)N[C@@H](C)c1[nH]nc(-c2ccc(F)cc2)c1-c1ccncc1 |

Second part, the compound before the results:

| Structure (SMILES) | inhibition [%] | IC50 |
| --- | --- | --- |
| O=C(NCCCc1[nH]nc(-c2ccc(F)cc2)c1-c1ccncc1)NCCCN1CCCC1 | 1 |  |
| C[C@@H](NS(=O)(=O)c1cc(Cl)c(Cl)s1)c1[nH]nc(-c2ccc(F)cc2)c1-c1ccncc1 | 75 |  |
| CC(C)c1cc(C(C)C)c(C(=O)N[C@@H](C)c2[nH]nc(-c3ccc(F)cc3)c2-c2ccncc2)c(C(C)C)c1 | 42 |  |
| OCCn1ncc(-c2ccnc(NCc3ccc(F)cc3)c2)c1-c1ccc(F)cc1 |  | 800 nM and 6020 nM |
| C[C@H](NS(=O)(=O)c1ccc(-c2ccon2)s1)c1[nH]nc(-c2ccc(F)cc2)c1-c1ccncc1 | 95 |  |
| Cc1noc(C)c1S(=O)(=O)N[C@@H](C)c1[nH]nc(-c2ccc(F)cc2)c1-c1ccncc1 | 74 |  |
| CC(=O)O[C@@H](C)C(=O)NCc1[nH]nc(-c2ccc(F)cc2)c1-c1ccncc1 |  | 6510 nM |
| Cn1cnc(S(=O)(=O)N2CCC(c3[nH]nc(-c4ccc(F)cc4)c3-c3ccncc3)CC2)c1 | 28 |  |
| O=S(=O)(c1ccc(F)c(F)c1)N1CCC(c2[nH]nc(-c3ccc(F)cc3)c2-c2ccncc2)CC1 |  | > 1000 nM |
| COC(=O)CCCC(=O)NCc1[nH]nc(-c2ccc(F)cc2)c1-c1ccncc1 | 20 |  |
| O=C(NCc1[nH]nc(-c2ccc(F)cc2)c1-c1ccncc1)C1CCC1 | 28 |  |
| O=S(=O)(c1cccc(C(F)(F)F)c1)N1CCC(c2[nH]nc(-c3ccc(F)cc3)c2-c2ccncc2)CC1 | 10 |  |
| COc1cccc(CC(=O)N2CCC(c3[nH]nc(-c4ccc(F)cc4)c3-c3ccncc3)CC2)c1 |  | 770 nM |
| O=S(=O)(NCCCc1[nH]nc(-c2ccc(F)cc2)c1-c1ccncc1)c1cccc(Cl)c1Cl | 18 |  |
| FC(F)(F)c1cccc(-c2n[nH]cc2-c2ccncc2)c1 |  | 87 nM |
| CCN(CC)CCn1cc(-c2ccnc(F)c2)c(-c2ccc(F)cc2)n1 |  | 2300 nM |
| Cc1n[nH]c(-c2ccccc2)c1-c1ccncc1 |  | 578 nM |
| Cc1cccc(S(=O)(=O)N2CCC(c3[nH]nc(-c4ccc(F)cc4)c3-c3ccncc3)CC2)c1 | 1 |  |
| Cn1cc(-c2ccnc(F)c2)c(-c2ccc(F)cc2)n1 |  | 456 nM |
| Cc1n[nH]c(-c2ccc(N(C)C)cc2)c1-c1ccncc1 |  | 99 nM |
| CCN(CC)CCn1cc(-c2ccncc2)c(-c2ccc(F)cc2)n1 |  | 509 nM |

| Structure (SMILES) | inhibition [%] | IC50 |
| --- | --- | --- |
| COc1ccc(C(=O)NCc2[nH]nc(-c3ccc(F)cc3)c2-c2ccncc2)cc1OC | 22 |  |
| O=C(NCc1[nH]nc(-c2ccc(F)cc2)c1-c1ccncc1)c1ccc(F)c(F)c1F |  | 3270 nM |
| Cc1c(Cl)cccc1S(=O)(=O)NCc1[nH]nc(-c2ccc(F)cc2)c1-c1ccncc1 | 15 |  |
| O=C(NCc1[nH]nc(-c2ccc(F)cc2)c1-c1ccncc1)[C@H]1CCCN1 |  | > 1000 nM |
| CCCCOc1ccc(S(=O)(=O)NCCc2[nH]nc(-c3ccc(F)cc3)c2-c2ccncc2)cc1 | 29 |  |
| COc1ccc(C)cc1S(=O)(=O)NCc1[nH]nc(-c2ccc(F)cc2)c1-c1ccncc1 |  | > 1000 nM |
| C#CCn1ncc(-c2ccncc2)c1-c1ccc(F)cc1 |  | > 10000 nM |
| CCCCOc1ccc(C(=O)NCc2[nH]nc(-c3ccc(F)cc3)c2-c2ccncc2)cc1 | 66 |  |
| Cc1ccc(S(C)(=O)=O)cc1S(=O)(=O)N[C@@H](C)c1[nH]nc(-c2ccc(F)cc2)c1-c1ccncc1 | 78 |  |
| CN(C)c1cccc2c(S(=O)(=O)NCCc3[nH]nc(-c4ccc(F)cc4)c3-c3ccncc3)cccc12 | 28 |  |
| O=S(=O)(c1ccccc1F)N1CCC(c2[nH]nc(-c3ccc(F)cc3)c2-c2ccncc2)CC1 |  | 5000 nM |
| Cc1cnccc1-c1c[nH]nc1-c1ccc(F)cc1 |  | 1210 nM |
| Fc1cc(-c2c[nH]nc2-c2ccc(F)c(F)c2)ccn1 |  | 517 nM |
| O=S(=O)(NCCc1[nH]nc(-c2ccc(F)cc2)c1-c1ccncc1)c1cc(Cl)cc(Cl)c1O | 50 |  |
| Cn1cc(-c2ccnc(F)c2)c(-c2ccc(F)c(F)c2)n1 |  | 1280 nM |
| N#Cc1cccc(S(=O)(=O)N2CCC(c3[nH]nc(-c4ccc(F)cc4)c3-c3ccncc3)CC2)c1 | 14 |  |
| Clc1ccc(-c2n[nH]cc2-c2ccnc(NCc3ccccn3)c2)cc1 |  | 166 nM |
| Cc1nn(C)c(-c2ccc(Cl)cc2)c1-c1ccncc1 |  | 2700 nM |
| Cn1cc(-c2ccncc2)c(-c2cccc(F)c2)n1 |  | 462 nM |
| O=C(NCc1[nH]nc(-c2ccc(F)cc2)c1-c1ccncc1)c1c(Cl)cc(Cl)cc1Cl | 100 |  |
